One compound from patent US8044098B2, “Use of hydroxybenzoic acids and their esters and analogues for preventing or treating virus infection” (Shenghua Guangzhou Pharmaceutical Science & Technology Co., …, priority 2005, dated 2011) can be followed below.

The format of series [1] is physicochemical. As to the method:
20 ml 1,2-propylene glycol, 15 ml Tween-80 and 5 ml azone were mixed together and sterile distilled water was added to bring the volume to 100 ml. The pH value of the solution was adjusted to pH 6.8 with NaOH or HCl to obtain a micro emulsion. 10 g propyl gallate and 10 g gallic acid were dissolved in the micro emulsion, respectively, and mixed well. 10 ml of each micro emulsion was added to a capped transparent glass tube. Both solutions were colorless. The absorbance of the two solutions at 400˜500 nm was measured with spectrophotometry and their absorbance was under 0.15. […] Measured by spectrophotometry again, the absorbance of the gallic acid solution was 1.2 and that of the propyl gallate solution was 0.4.

In series [2] the test system is secretion of HBsAg by 2.2.15 cells. Briefly: Inhibition of secretion of HBsAg by Hepatitis B 2.2.15 cell line. The class given is cell-based, HBV. The following applies: 1 μmol/ml. An excerpt: (§1) Hepatitis B 2.2.15 cell line was transfected by HBV DNA (purchased from Institute of Biochemistry and Cell Biology of Shanghai Institute for Biological Sciences or the National Center for Drug Screening) and used as the cell model for screening anti-HBV drug compounds (See Chinese Journal Of Integrated Traditional and Western Medicine on Liver Diseases, 2004, 14(3): 158). The cell culture medium DMEM (GIBCO Company), bovine serum (Hangzhou Siji Qing Biochemical Manufacturer), G418 (GIBCO Company), 3-(4,5-dimethylthiazol-2-yl)-2,5-diphenyltetrazoliumbromide (Sigma), HBsAg and HBeAg diagnostic kit (Shanghai Kehua Bio-engineering Co., Ltd).
(§2) The test compounds listed in Table 3 below were dissolved in a mixture containing 20 ml 1,2-propylene glycol and 15 ml Tween-80 and diluted with sterile saline water to 2 μmol/ml of the test compound. Then it was mixed with the cell culture medium at equal volume to obtain a solution containing 1 μmol/ml of the tested compound. Cells at the concentration of 1×10^5 cells per milliliter were inoculated to a 24-well plate at 1 ml/well. Supernatant from the cell culture mixture was collected three days later for testing.

A further series deals with HSV infection. The experiment in a line: External treatment of HSV infection in clinical tests. The class given is in vivo, human. The following applies: patients with HSV infection, applied on affected areas three times a day. An excerpt: Twenty-two patients who were clinically diagnosed with HSV infection were randomly selected and divided into two groups. Acyclovir ointment and micro emulsion containing propyl gallate prepared as described in Example 1 were applied to the two groups, respectively, on the affected areas of the patients three times a day.

The subject of another series is HPV 16/18. Briefly: Drug screening by quantitative fluorescent PCR analysis of HPV 16/18 in condyloma acuminata homogenate. Also on record: species or system human papillomavirus (HPV).
The test system of a further series is condyloma acuminata. The experiment in a line: Clinical use in treating condyloma acuminata. The class given is in vivo, human. An excerpt: Soft hyperplasia with nipple or cauliflower shaped or other shaped warts were found around the skin of the cunnus or anus. The result from 5% acetate acid white test was positive.
Patients selected for the clinical observation must meet the above standards. Plus the diameter of their skin lesions should equal to or be less than 1 cm. […] Patients who had vaginal yeast, trichomonas, bacteria infection or other complications, chronic diseases, serious liver or kidney diseases or women in pregnancy or lactation were not selected. Treatments to women would not be conducted in their menstrual periods.
50 qualified patients were selected and randomly divided into five groups to be tested with p-hydroxybenzoic acid, gallic acid, ethyl p-hydroxybenzoate, propyl gallate and recombinant human interferon α-2β gel, respectively. The samples of p-hydroxybenzoic acid, gallic acid, ethyl p-hydroxybenzoate and propyl gallate were prepared as described in Example 1. The patients were treated with the test sample to the affected areas three times a day, in the morning, at noon and night. The samples were applied to cover the warts and the patients were required to leave the treated areas exposed and not to move for 20 minutes.
Observation time: 8 days. Patients not cured after 8 days would continue to use the test samples for another 12 weeks, and their prognosis was followed during the 12-week period.
Observed items: the location, shape, size and number of warts were carefully observed and recorded before the treatment.
“Recovered”: all skin lesions had disappeared;
“Obvious Effect”: more than 70% of the skin lesions had disappeared;
“Improved”: more than 30% of the skin lesions had disappeared;
“Not Effective”: less than 30% of the skin lesions had disappeared or the original skin lesions didn't change or even enlarged.

In series [3] the test system is secretion of HBeAg by 2.2.15 cells. Briefly: Inhibition of secretion of HBeAg by Hepatitis B 2.2.15 cell line. The class given is cell-based, HBV. To be noted: 1 μmol/ml.
Source text: as §1, §2

In another series the test system is HPV 6/11. Briefly: Drug screening by quantitative fluorescent PCR analysis of HPV 6/11 in condyloma acuminata homogenate. Further details: species or system human papillomavirus (HPV).
The mark [4] stands for this setting: 2.2.15 cells, supernatant collected three days later.
[5] abbreviates: 24 hours after adding the test compound.
The mark [6] stands for this setting: number of patients, more than 70% of the skin lesions disappeared.

On to `O=C(O)c1cc(O)c(O)c(O)c1` [Gallic acid], for which, in series [1] (micro emulsion pH 6.8, freshly prepared), the “colour of solution, initial” value was “colorless”. Further, in series [1] (micro emulsion pH 6.8, kept at room temperature for 30 days, 400˜500 nm), the “absorbance after 30 days” value came to 1.2. Also, the “colour of solution after 30 days” value in series [1] (micro emulsion pH 6.8, room temperature for 30 days) was “light brown”. The “effect on the secretion of HBsAg by the 2.2.15 cells (in words)” value in series [2] is given as “had inhibition effect”. Also, the “HBsAg Inhibition rate” value in series [2] (setting [4]) is on record as 8.83%. In the series with HSV infection, the “average time for recovery” value amounted to 3 days. For the same compound, in the series on HPV 16/18 (50 μl 10% micro emulsion + 50 μl HPV sample homogenate, 37° C., 24 hours, saline control 1.40 × 10^5), the “HPV 16/18 Virus (copies/ml)” value was 0 copies/ml. The “HPV 16/18 detected by FQ-PCR (in words)” value with HPV 16/18 (setting [5]) is listed as “no HPV 6/11 or HPV 16/18 was detected”. In addition, the “treatment effect compared to recombinant human interferon α-2β gel” value in the series on condyloma acuminata (condyloma acuminata patients, 10% micro emulsion) is on record as “more apparent treatment effect”. For the same compound, the “Recovered, 1-4 days” value in the series on condyloma acuminata (number of patients (50 patients in five groups), 10% micro emulsion on affected areas three times a day, all skin lesions disappeared) came to 2. The same compound yielded an Improved with condyloma acuminata (number of patients, more than 30% of the skin lesions disappeared, observation 8 days) of 4. Further, in the series with condyloma acuminata (setting [6]), the “Obvious Effect, 1-4 days” value amounted to 3 and the “Obvious Effect, 5-8 days” value worked out at 1. Moreover, in series [3], the “effect on the secretion of HBeAg by the 2.2.15 cells (in words)” value is “had inhibition effect”. The “HBeAg Inhibition Rate” value in series [3] (setting [4]) was determined as 9.40%. In the series with HPV 6/11 (50 μl 10% micro emulsion + 50 μl HPV sample homogenate, 37° C., 24 hours, saline control 1.45 × 10^6), the “HPV 6/11 Virus (copies/ml)” value is reported as 0 copies/ml. In the series with HPV 6/11 (setting [5]), the “HPV 6/11 detected by FQ-PCR (in words)” value is on record as “no HPV 6/11 or HPV 16/18 was detected”.
